Reference: article PMC10269561, “Absence of Clinically Meaningful Drug-Drug Interactions with Rezafungin: Outcome of Investigations” (Microbiology Spectrum, 2023)
Where two headings read alike, the source gives them in different places.

Conditions: for AUC0–t, geometric LSM value, + rezafungin / AUC0–∞, geometric LSM value, + rezafungin / Cmax, geometric LSM value, + rezafungin / AUC0–t, geometric LSM value, alone / AUC0–∞, geometric LSM value, alone / Cmax, geometric LSM value, alone: Study 1, healthy subjects, plasma, LC-MS/MS, NCA; for Change in exposure of the oral probe drug on coadministration of i.v. rezafungin vs dosing alone: 90% CIs of GMRs of Cmax, AUC0–t, AUC0–∞ within 80 to […]; for Observation, Cmax (change with rezafungin relative to drug alone) / Observation, AUC (change with rezafungin relative to drug alone): class symbol; for Observation, AUC (change with rezafungin relative to drug alone): AUC0–t and AUC0–∞ unless otherwise noted; for AUC0–t, geometric mean ratio (drug + rezafungin / drug alone) / AUC0–∞, geometric mean ratio (drug + rezafungin / drug alone) / Cmax, geometric mean ratio (drug + rezafungin / drug alone): geometric LSM ratio x 100, ANOVA
Method: Both were phase 1, single-center, open-label, crossover inpatient studies that were conducted in the United States in healthy adults (study 1, aged 26 to 55 years; study 2, aged 21 to 59 years). The studies were compliant with the International Council for Harmonisation of Technical Requirements for Pharmaceuticals for Human Use E6 guideline for good clinical practice ([54]) and the Declaration of Helsinki. The study protocols were approved by the institutional review board associated with the study site, and all subjects provided written informed consent.
After screening, subjects were admitted to the clinical research unit (CRU) prior to the first dose of rezafungin (from day −22) and were discharged from the CRU on day 22. Nine oral substrate drugs were administered as part of a cocktail containing two or more drugs once before and once after receiving rezafungin on a schedule designed to allow the washout of the drugs in the cocktail between doses and limit interactions with other drugs (Fig. 4A). […] A loading dose of rezafungin for injection (600 mg) was administered over 1 h on day 1, followed by two once-weekly 400-mg doses over 1 h on days 10 and 15. Due to a short delay in the availability of the investigation study drug, the second once-weekly dose of rezafungin and the second set of oral substrate drugs were administered on day 10 instead of day 8, although the time between doses remained sufficient for all originally planned PK samplings through 96 h postdose and for the adequate washout of the substrate drugs. The total duration of treatment was up to 89 days, including 45 days of screening and 44 days of treatment in the CRU.
In study 1, predose PK blood samples were collected on each dosing day ≤60 min prior to the administration of the substrate drugs with or without rezafungin. Multiple blood samples were collected relative to each dose, with collection times ranging from 15 min to 168 h postdose, depending on the PK profile of each probe substrate drug (Table S5). For study 2, multiple blood samples were collected, and the timing of collection varied according to the PK profile of each coadministered drug from predose to 96 h postdose (Table S6). PK blood samples were collected for rezafungin at sample times ranging from predose to 168 h postdose.
For both studies, validated liquid chromatography-tandem mass spectrometry (LC-MS/MS) methods were used for PK assessments to analyze the concentrations of rezafungin and coadministered drugs. All plasma concentrations and actual blood sampling times were subjected to noncompartmental PK analysis. PK parameter calculations were performed using noncompartmental analysis (NCA) (Phoenix WinNonlin version 8.0 or higher). The PK parameters analyzed included Cmax; the time to reach the maximum observed plasma concentration (Tmax); AUC0–t (using the log-linear trapezoidal rule, where t was the last time point with a measurable concentration); AUC0–∞ (calculated as AUC0–t + Clast/λz); the AUC from 0 to 168 h (AUC0–168); the percentage of AUC0–∞ extrapolated (AUC%Extrap); the terminal elimination rate constant, determined by linear regression of the terminal linear segment of the log concentration-versus-time curve (λz); and the elimination half-life (t1/2), calculated as ln(2)/λz.
The primary analysis of the drug interaction effect on substrate drugs following rezafungin administration was assessed by the ratio of the geometric least-squares (LS) mean of each substrate drug administered with rezafungin to that without rezafungin. […] PK parameters were statistically analyzed using an analysis of variance (ANOVA) model. […] However, noncompliance with these no-effect boundaries was not considered evidence of a significant DDI. Statistical analyses were performed using SAS (version 9.4) and the mixed procedure. Adverse events were descriptively summarized.

[1] = oral metformin 500 mg, pitavastatin 2 mg (day 10) or caffeine 100 mg, efavirenz 50 mg, midazolam 2 mg, digoxin 0.25 mg (day 15) with i.v. rezafungin 400 mg
[2] = oral repaglinide 1 mg, metformin 500 mg, pitavastatin 2 mg, caffeine 100 mg, efavirenz 50 mg, midazolam 2 mg or digoxin 0.25 mg without rezafungin
[3] = Study 1, rezafungin 400 mg i.v. (day 10 or 15)
[4] = oral repaglinide 1 mg with i.v. rezafungin 600 mg (day 1)
[5] = Study 1, from geometric mean ratio
[6] = Study 1, rezafungin 600 mg i.v.
[7] = oral rosuvastatin 5 mg with i.v. rezafungin 400 mg (day 10)
[8] = oral tacrolimus 5 mg or rosuvastatin 5 mg without rezafungin

Row | Compound | AUC0–t, geometric LSM value, + rezafungin [1] | AUC0–∞, geometric LSM value, + rezafungin [1] | Cmax, geometric LSM value, + rezafungin [1] | AUC0–t, geometric LSM value, alone [2] | AUC0–∞, geometric LSM value, alone [2] | Cmax, geometric LSM value, alone [2] | Change in exposure of the oral probe drug on coadministration of i.v. rezafungin vs dosing alone (Study 1) | Observation, Cmax (change with rezafungin relative to drug alone) (Study 1) | Observation, AUC (change with rezafungin relative to drug alone) (Study 1) | AUC0–t, geometric mean ratio (drug + rezafungin / drug alone) [3] [%] | AUC0–∞, geometric mean ratio (drug + rezafungin / drug alone) [3] [%] | Cmax, geometric mean ratio (drug + rezafungin / drug alone) [3] [%] | other results
1 | Cn1c(=O)c2c(ncn2C)n(C)c1=O [Caffeine] | 18,475.36 ng · h/mL | 20,853.11 ng · h/mL | 2,232.88 ng/mL | 17,230.22 ng · h/mL | 18,897.70 ng · h/mL | 2,075.44 ng/mL | did not result in statistically significant changes | ↔ (no change (the ratio of the PK parameter value varied by up to ~10%, and the 90% CI was within 80 to 125%)) | ↔ (no change (the ratio of the PK parameter value varied by up to ~10%, and the 90% CI was within 80 to 125%)) | 107.23 | 110.35 | 107.59 | –
2 | C[C@H]1O[C@@H](O[C@H]2[C@@H](O)C[C@H](O[C@H]3[C@@H](O)C[C@H](O[C@H]4CC[C@@]5(C)[C@H](CC[C@@H]6[C@@H]5C[C@@H](O)[C@]5(C)[C@@H](C7=CC(=O)OC7)CC[C@]65O)C4)O[C@@H]3C)O[C@@H]2C)C[C@H](O)[C@@H]1O [Digoxin] | – | – | – | – | – | – | did not result in statistically significant changes | – | – | – | – | – | –
3 | O=C1Nc2ccc(Cl)cc2[C@@](C#CC2CC2)(C(F)(F)F)O1 [Efavirenz] | 7,698.46 ng · h/mL | 16,156.14 ng · h/mL | 300.17 ng/mL | 7,557.26 ng · h/mL | 14,368.15 ng · h/mL | 299.30 ng/mL | did not result in statistically significant changes | ↔ (no change (the ratio of the PK parameter value varied by up to ~10%, and the 90% CI was within 80 to 125%)) | ↔ (no change (the ratio of the PK parameter value varied by up to ~10%, and the 90% CI was within 80 to 125%)) | 101.87 | 112.44 | 100.29 | –
4 | CN(C)C(=N)N=C(N)N [Metformin] | 7,257.55 ng · h/mL | 7,373.31 ng · h/mL | 1,115.98 ng/mL | 7,333.63 ng · h/mL | 7,446.67 ng · h/mL | 1,074.27 ng/mL | did not result in statistically significant changes | ↔ (no change (the ratio of the PK parameter value varied by up to ~10%, and the 90% CI was within 80 to 125%)) | ↔ (no change (the ratio of the PK parameter value varied by up to ~10%, and the 90% CI was within 80 to 125%)) | 98.96 | 99.02 | 103.88 | –
5 | Cc1ncc2n1-c1ccc(Cl)cc1C(c1ccccc1F)=NC2 [Midazolam] | 21.62 ng·h/mL | 23.67 ng·h/mL | 8.70 ng/mL | 21.39 ng·h/mL | 23.25 ng·h/mL | 9.00 ng/mL | did not result in statistically significant changes | ↔ (no change (the ratio of the PK parameter value varied by up to ~10%, and the 90% CI was within 80 to 125%)) | ↔ (no change (the ratio of the PK parameter value varied by up to ~10%, and the 90% CI was within 80 to 125%)) | 101.06 | 101.78 | 96.73 | –
6 | O=C(O)C[C@H](O)C[C@H](O)/C=C/c1c(C2CC2)nc2ccccc2c1-c1ccc(F)cc1 [Pitavastatin] | 81.54 ng·h/mL | 90.87 ng·h/mL | 35.72 ng/mL | 77.44 ng·h/mL | 85.78 ng·h/mL | 36.23 ng/mL | did not result in statistically significant changes | ↔ (no change (the ratio of the PK parameter value varied by up to ~10%, and the 90% CI was within 80 to 125%)) | ↔ (no change (the ratio of the PK parameter value varied by up to ~10%, and the 90% CI was within 80 to 125%)) | 105.30 | 105.93 | 98.59 | –
7 | CCOc1cc(CC(=O)N[C@@H](CC(C)C)c2ccccc2N2CCCCC2)ccc1C(=O)O [Repaglinide] | – | – | – | 20.25 ng·h/mL | 21.74 ng·h/mL | 11.86 ng/mL | – | ↔ (no change (the ratio of the PK parameter value varied by up to ~10%, and the 90% CI was within 80 to 125%)) | – | – | – | – | AUC0–t, geometric LSM value, + rezafungin [4]: 23.47 ng·h/mL; AUC0–∞, geometric LSM value, + rezafungin [4]: 25.16 ng·h/mL; Cmax, geometric LSM value, + rezafungin [4]: 12.13 ng/mL; Magnitude of increase in AUC0–∞ with rezafungin vs drug alone [5]: ~16%; AUC0–t, geometric mean ratio (drug + rezafungin / drug alone) [6]: 115.87%; AUC0–∞, geometric mean ratio (drug + rezafungin / drug alone) [6]: 115.75%; Cmax, geometric mean ratio (drug + rezafungin / drug alone) [6]: 102.26%
8 | CC(C)c1nc(N(C)S(C)(=O)=O)nc(-c2ccc(F)cc2)c1/C=C/[C@@H](O)C[C@@H](O)CC(=O)O [Rosuvastatin] | – | – | – | – | – | – | – | – | – | 115.13 | 113.55 | 111.82 | AUC0–t, geometric LSM value, + rezafungin [7]: 31,027.38 pg · h/mL; AUC0–∞, geometric LSM value, + rezafungin [7]: 32,386.11 pg · h/mL; Cmax, geometric LSM value, + rezafungin [7]: 3,683.66 pg/mL; AUC0–t, geometric LSM value, alone [8]: 26,949.43 pg · h/mL; AUC0–∞, geometric LSM value, alone [8]: 28,521.34 pg · h/mL; Cmax, geometric LSM value, alone [8]: 3,294.35 pg/mL; Magnitude of increase in AUC with rezafungin vs drug alone (Study 1, AUC0–t and AUC0–∞, from geometric mean ratio): ~15%; Magnitude of increase in AUC0–∞ with rezafungin vs drug alone [5]: approximately 14%; Magnitude of increase in Cmax with rezafungin vs drug alone [5]: ~12%
